Reference: ChEMBL document CHEMBL1152673, “Crystal structure of 3-isopropylmalate dehydrogenase in complex with NAD(+) and a designed inhibitor” (Bioorg Med Chem, 2009)

Target: 3-isopropylmalate dehydrogenase (Thermus thermophilus, UniProt Q5SIY4)
Assay: Inhibition of Thermus thermophilus HB8 IPMDH assessed as formation of NADH by Lineweaver-Burke plot analysis

Chain of 3-isopropylmalate dehydrogenase (Q5SIY4 whole entry): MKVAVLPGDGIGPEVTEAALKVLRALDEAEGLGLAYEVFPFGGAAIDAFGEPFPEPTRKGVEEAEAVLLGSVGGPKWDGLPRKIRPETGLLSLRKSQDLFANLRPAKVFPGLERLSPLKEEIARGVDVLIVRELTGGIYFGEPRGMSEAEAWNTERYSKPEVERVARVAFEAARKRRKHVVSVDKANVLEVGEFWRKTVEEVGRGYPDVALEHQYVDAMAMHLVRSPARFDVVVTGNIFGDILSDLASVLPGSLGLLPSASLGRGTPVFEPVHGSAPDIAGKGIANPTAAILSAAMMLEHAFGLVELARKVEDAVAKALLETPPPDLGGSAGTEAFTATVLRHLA

Ki: 62 nM
SMILES: CS[C@H](C(=O)O)[C@@H](O)C(=O)O
